Values of other authors in US5989583A, “Solid lipid compositions of lipophilic compounds for enhanced oral bioavailability” (Pharmos Ltd., priority 1996, dated 1999).

Assays:
[1] = tested on: patients with severe heart failure; conditions: 40 patients with severe heart failure, long term treatment
periodontal disease = conditions: supplements containing CoQ10
[2] = tested on: cultured cerebellar neurons; conditions: age-related and excitotoxin-induced degeneration
[3] = for Water solubility (in words): water / aqueous solutions
[4] = 20 mg THC in a sesame oil formulation

COC1=C(OC)C(=O)C(C/C=C(\C)CC/C=C(\C)CC/C=C(\C)CC/C=C(\C)CC/C=C(\C)CC/C=C(\C)CC/C=C(\C)CC/C=C(\C)CC/C=C(\C)CCC=C(C)C)=C(C)C1=O [CoQ10, 2,3-dimethoxy-5-methyl-6-decaprenyl-1,4-benzoquinone]
patients showing improvement in their condition [1]: 69%
oral bioavailability / systemic availability: very low
Effect on periodontal disease (periodontal disease): the progress of the disease was not only stopped, but accelerated tissue healing was initiated as well
Protection of neurons against degeneration [2]: protect cultured cerebellar neurons against age-related and excitotoxin-induced degeneration
Water solubility (in words) [3]: practically insoluble in water

CCCCCCC(C)(C)c1cc(O)c2c(c1)OC(C)(C)[C@H]1CC=C(CO)C[C@H]21 [Dexanabinol, (+)-(3S, 4S) -7-hydroxy-Δ^6-tetra hydrocannabinol-1,1-dimetylheptyl]
oral bioavailability / systemic availability: poor oral bioavailability
Water solubility ([3]; water): less than 50 μg/ml

CCCCCc1cc(O)c2c(c1)OC(C)(C)[C@@H]1CCC(C)=C[C@@H]21 [THC, tetrahydrocannabinol]
maximal plasma levels after oral dosing [4]: around 10 ng/ml

C=C(C)[C@@H]1CCC(C)=C[C@H]1c1c(O)cc(CCCCC)cc1O [cannabidiol]
Water solubility (in words) [3]: a few micrograms/ml or less

CCCCCc1cc(O)c2c(c1)OC(C)(C)c1ccc(C)cc1-2 [cannabinol]
Water solubility (in words) [3]: a few micrograms/ml or less

CCCCCc1cc(O)c2c(c1)OC(C)(C)[C@@H]1CCC(C)=C[C@@H]21 [Δ^1 -THC, Δ^1 -tetrahydrocannabinol]
Water solubility (in words) [3]: a few micrograms/ml or less

CCCCCc1cc(O)c2c(c1)OC(C)(C)[C@@H]1CC=C(C)C[C@@H]21 [Δ^6 -THC, Δ^6 -tetrahydrocannabinol]
Water solubility (in words) [3]: a few micrograms/ml or less
